Laboratory results published in US6124308A, “Optically active phenyl pyrimidine derivatives as analgesic agent” (priority 1995, dated 2000).
Where two headings read alike, the source gives them in different places.

How the values were obtained:
Half-life in male rats = assay type: in vivo, rat; details: rat, in vivo, read-out: half-life (t1/2) (converted)
[1] = system: veratrine-evoked glutamate release from rat brain slices; assay: Inhibition of veratrine-evoked glutamate release; assay type: cell-based; details: at 10 μM
[2] = system: striatal dopamine in MPTP injected C57B1/6 mice; assay: MPTP induced neurotoxic model, striatal dopamine levels; assay type: in vivo, mouse
Protocol: Six-week old male C57B1/6 mice (Japan SLC Co., Hamamatu) were housed ten per case in a temperature-controlled room under a 12-hours light/12-hours dark cycle with free access to food and water.
Mice received i.p. injections of the R(-) enantiomer and the S(+) enantiomer (30 mg/kg) in olive oil starting 12 hours before MPTP injection and every 12 hours for the next 5-injections. Control mice received olive oil only.
Mice receive s.c. injection of MPTP-HCl (40 mg of free base per kg; Research Biochemicals) in saline. Control mice received saline only.
HPLC with electrochemical detection was used to measure striatal levels of dopamine (J.C. Garcia': Journal of Chromatography B. 656 (1994) 77-80).
Seven days after the MPTP injection, mice ([…]) were killed and striata were dissected out, immediately frozen, and stored at -80° C. until analysis. On the day of the assay, tissue samples were sonicated in 10 vol(wt/vol) of 0.1M perchloric acid /1.9 mM sodium hydrogen sulfite containing 1.6μg/ml 3,4-dihydroxybenzylamine hydrobromide(Sigma) as an internal standard. After centrifugation (2,800× g for 10 min at room temperature) and filtration (0.5 μm; Millipore membrane filter), 10 μl of supernatant was injected onto an Inertsil ODS3 column (4.6×250 mm; GL Science, Tokyo). The mobile phase consisted of 88% 115 mM NaH2 PO4 /0.178 mM Na2 EDTA /0.92 mM 1-octanesulfonic acid (pH=2.6) solution and 12% ethanol. F low rate was 1.0 ml/min. Peaks were detected by a Shimazu electrochemical detector LECD-6A(700 mV).

[3] = system: whole-cell sodium currents in cultured rat hippocampal neurones; assay: Whole-cell sodium currents in cultured embryonic rat hippocampal neurones, patch-clamp; assay type: cell-based
From the text: (b) Cultured embryonic rat hippocampal neurones
Sodium currents were elicited by the application of 20 msec dipolarisng pulses, thereby lowering membrane potential to -10 mV from a holding potential of -60 mV.

[4] = system: established PGE2-induced acute hyperalgesia; assay: Effects on established PGE2-induced acute hyperalgesia (paw pressure); assay type: in vivo; details: Rattus norvegicus, po, 2 h after PGE2 (100 ng); read-out: analgesia ED50 and 95% confidence limits
Protocol: Effects on established PGE2 -induced acute hyperalgesia
The R(-)enantiomer was given orally 2 h after subplantar injection of PGE2 (100 ng) when the hyperalgesia was established. Reaction time to paw pressure was measured 3 h after the PGE2 administration.

[5] = system: native channels in cultured rat striatal neurones (Na+ currents); assay: Native sodium channels in cultured rat striatal neurones, whole-cell recording; assay type: cell-based
From the text: The action of the R(-)enantiomer on native channels in cultured rat striatal neurones was studied using whole-cell recording techniques.

[6] = system: hind-limb extension (maximal electroshock seizure); assay: Maximal electroshock test, rats, i.p., duration of action; assay type: in vivo, rat; details: for ED50: Rattus norvegicus, ip, read-out: ED50 (95% limits)
rat liver DHFR = biological target: T1, rat liver DHFR (Rattus norvegicus, UniProt Q920D2); assay: Activity against dihydrofolate reductase (DHFR), spectrophotometric assay; assay type: biochemical
T1 construct: rat liver DHFR; from tissue; host or cells: rat liver
T1 sequence (Q920D2 1-187): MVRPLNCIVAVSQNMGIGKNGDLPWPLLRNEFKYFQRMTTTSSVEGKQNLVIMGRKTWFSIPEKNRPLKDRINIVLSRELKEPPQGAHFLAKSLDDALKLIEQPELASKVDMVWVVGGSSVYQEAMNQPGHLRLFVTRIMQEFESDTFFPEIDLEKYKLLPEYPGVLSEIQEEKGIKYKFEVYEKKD

[7] = system: maximal electroshock seizure; assay: Maximal electroshock test, mice, different routes of administration; assay type: in vivo, mouse; details: for ED50: Mus musculus, mice, 1 hour, read-out: ED50 (95% limits)
[8] = system: electrical activity of the external oblique muscle (egg albumin sensitised rats); assay: Irritable bowel syndrome model: colorectal distension in egg albumin sensitised rats; assay type: in vivo, rat; details: 10 mg/kg p.o., 60 minutes before pressure response curve
Protocol: Male Listar hooded rats weight range 100-150 g were used.
The rats were sensitised by dosing ip (1 ml per rat) with a solution containing egg albumin, (10 ug/ml) pertusssis vaccine (1 mg/ml) and aluminium hydroxide (10 mg/ml). Control animals received saline.
Seven days later the rats were anaesthetised using isofurane and the external oblique muscle exposed. Two nichrome wires were implanted into the muscles and the wires exteriorised to the back of the neck, the skin was sutured and the animals were allowed to recover.
Six days later the animals were fasted overnight. On the following day the animals were anaesthetised and the colorectum washed out using saline. A 4 cm long latex balloon tied to a portex cannula was connected to an inflation device, and the nichrome electrodes at the back of the neck were connected to head stage.
The electrical activity of the external oblique muscle was recorded by a data capture system (`spike2`) which calculated the number of electrical spikes. Sequential pressure response curves (10-100 mmHg) in sensitised and the control animals were constructed. The balloon was inflated for 1 min at each pressure, followed by a rest period of 5 min.
The mean number of spikes at each pressure was calculated for the control animals, sensitised animals and sensitised animals treated with the R(-) enantiomer. […]

[9] = biological target: T2, rat type IIA sodium channels (Rattus norvegicus, UniProt P04775); assay: Recombinant rat type IIA sodium channels in chinese hamster ovary cells, whole-cell recording; assay type: cell-based; details: for IC50: read-out: IC50 (inhibition of Na+ currents)
T2 construct: no beta subunit mentioned
From the text: The IC50 's at two different holding potentials (Vh) were as follows: […]

[10] = system: PGE2-induced acute hyperalgesia; assay: Effects on the development of PGE2-induced acute hyperalgesia (paw pressure); assay type: in vivo, rat; details: p.o., 1 h before PGE2 (100 ng), n=5
Protocol: Effects on the development of PGE2 -induced acute hyperalgesia
Reaction times to paw pressure were measured 3 h after PGE2 injection. Ataxia was scored at the same time by observation of the rats placed in an arena.

T2 sequence (P04775 whole entry): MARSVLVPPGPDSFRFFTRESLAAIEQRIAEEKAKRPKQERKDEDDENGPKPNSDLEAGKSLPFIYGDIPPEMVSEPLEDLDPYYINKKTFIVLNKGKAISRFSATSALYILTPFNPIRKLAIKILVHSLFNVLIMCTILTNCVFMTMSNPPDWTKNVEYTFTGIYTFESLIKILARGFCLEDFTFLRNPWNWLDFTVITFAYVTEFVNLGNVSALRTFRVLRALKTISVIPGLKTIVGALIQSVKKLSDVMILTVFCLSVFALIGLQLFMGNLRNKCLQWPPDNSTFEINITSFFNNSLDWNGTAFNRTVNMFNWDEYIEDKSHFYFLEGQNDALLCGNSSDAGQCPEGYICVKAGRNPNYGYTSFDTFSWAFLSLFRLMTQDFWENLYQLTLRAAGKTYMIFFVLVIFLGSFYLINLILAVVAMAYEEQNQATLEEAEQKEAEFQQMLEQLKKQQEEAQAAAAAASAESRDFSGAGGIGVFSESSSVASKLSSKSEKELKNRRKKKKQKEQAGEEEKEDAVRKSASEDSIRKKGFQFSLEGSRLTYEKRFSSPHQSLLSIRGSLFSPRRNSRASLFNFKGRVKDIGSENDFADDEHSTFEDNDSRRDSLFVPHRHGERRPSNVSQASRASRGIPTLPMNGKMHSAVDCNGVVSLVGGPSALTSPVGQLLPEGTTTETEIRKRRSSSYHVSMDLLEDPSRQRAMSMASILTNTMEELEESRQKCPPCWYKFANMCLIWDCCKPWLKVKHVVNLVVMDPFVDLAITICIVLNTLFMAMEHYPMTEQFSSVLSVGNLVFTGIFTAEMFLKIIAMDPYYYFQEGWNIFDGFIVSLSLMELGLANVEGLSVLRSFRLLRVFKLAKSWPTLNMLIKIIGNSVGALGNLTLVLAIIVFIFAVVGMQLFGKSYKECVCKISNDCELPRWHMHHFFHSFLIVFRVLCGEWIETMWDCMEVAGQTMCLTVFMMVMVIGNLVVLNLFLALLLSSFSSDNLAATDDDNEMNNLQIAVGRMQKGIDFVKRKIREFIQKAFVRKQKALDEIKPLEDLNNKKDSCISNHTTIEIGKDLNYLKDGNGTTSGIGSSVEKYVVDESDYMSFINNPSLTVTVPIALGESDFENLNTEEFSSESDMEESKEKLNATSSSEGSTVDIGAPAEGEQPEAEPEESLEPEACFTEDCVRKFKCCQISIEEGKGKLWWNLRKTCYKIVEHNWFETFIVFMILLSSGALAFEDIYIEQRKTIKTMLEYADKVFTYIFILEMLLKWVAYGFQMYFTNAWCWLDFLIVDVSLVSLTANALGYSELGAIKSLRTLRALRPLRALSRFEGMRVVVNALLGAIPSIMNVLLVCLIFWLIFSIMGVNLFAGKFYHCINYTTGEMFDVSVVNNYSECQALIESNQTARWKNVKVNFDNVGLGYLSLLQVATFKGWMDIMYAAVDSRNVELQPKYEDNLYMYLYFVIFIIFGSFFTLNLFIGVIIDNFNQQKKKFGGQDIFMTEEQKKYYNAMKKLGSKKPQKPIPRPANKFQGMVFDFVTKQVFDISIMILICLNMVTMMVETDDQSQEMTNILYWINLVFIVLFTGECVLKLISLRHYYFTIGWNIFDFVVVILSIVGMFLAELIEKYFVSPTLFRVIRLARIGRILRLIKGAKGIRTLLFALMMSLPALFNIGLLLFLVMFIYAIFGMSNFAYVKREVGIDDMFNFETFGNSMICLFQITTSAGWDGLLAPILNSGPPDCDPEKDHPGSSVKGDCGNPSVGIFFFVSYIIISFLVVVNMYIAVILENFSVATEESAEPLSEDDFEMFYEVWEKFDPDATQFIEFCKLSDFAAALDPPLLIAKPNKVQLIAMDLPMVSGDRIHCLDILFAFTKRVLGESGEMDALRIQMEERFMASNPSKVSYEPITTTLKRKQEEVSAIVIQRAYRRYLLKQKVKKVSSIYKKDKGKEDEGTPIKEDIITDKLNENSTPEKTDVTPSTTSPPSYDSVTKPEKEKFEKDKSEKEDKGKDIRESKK

Nc1nc(N)c(-c2cccc(Cl)c2Cl)c(CF)n1 [R(-)enantiomer, R(-)-2,4-diamino-5-(2,3-dichlorophenyl)-6-fluoromethyl pyrimidine]
half-life (Half-life in male rats): 5.4 h
inhibition of veratrine-evoked glutamate release [1]: 64%
% protection ([2]; 30 mg/kg i.p. 6 times, MPTP 40 mg/kg s.c.): 81.0%
Dopamine content in the striatum ([2]; 30 mg/kg i.p. 6 times, MPTP 40 mg/kg s.c., day 7): 12.45 ± 1.18 μg/g wet tissue
% mortality ([2]; 30 mg/kg i.p., day -1 to 7): 0%
IC50 ([3]; 20 msec pulses to -10 mV from holding potential -60 mV, read-out: IC50 (reduction of peak sodium current)): 4 µM
reduction of peak sodium current ([3]; holding potential -60 mV): concentration-dependent reduction of peak sodium current
ED50 [4]: 3.4 mg/kg
inhibition of Na+ currents [5]: concentration- and voltage-dependent inhibition of Na^+ currents
inhibition by 10-30 μM on hyperpolarising the cells ([5]; 10-30 μM, Vh = -120 mV): virtually eliminated
IC50 ([5]; Rattus norvegicus, holding potential (Vh) of 60 mV, read-out: IC50 (inhibition of Na+ currents)): ~8 µM
potency at Vh = -90 mV compared with IC50 at 60 mV ([5]; Vh = -90 mV): much lower potency
ED50 ([6]; 8 h, i.p., rats, 8 hours): 5.9 mg/kg
ED50 ([6]; 24 h, i.p., rats, 24 hours): 12.9 mg/kg
times more active than its S(=)enantiomer ([6]; anticonvulsant, rats, i.p.): 15-20 times
times more active than lamotrigine ([6]; anticonvulsant, rats, i.p.): 2-3 times
ED50 at 2 hrs (isethionate salt versus base) ([6]; i.p., 2 hrs, calculated as the base, p<0.05, listed as R(-) enantiomer base, 120 min): 2.5 mg/kg
ED50 (95% limits) ([6]; i.p., rats, 0.5 hours, 30 min): 1.3 (0.9-1.9) mg/kg
ED50 (95% limits) ([6]; i.p., rats, 1 hour, 60 min): 1.0 (0.7-1.5) mg/kg
ED50 (95% limits) ([6]; i.p., rats, 2 hours, 120 min): 1.2 (0.8-1.7) mg/kg
ED50 (95% limits) ([6]; i.p., rats, 4 hours, 240 min): 2.3 (1.6-3.4) mg/kg
duration of action ([6]; maximal electroshock): long duration of action
inhibition at 100 µM (rat liver DHFR): 25%
ED50 ([7]; ip, i.p.): 1.3 mg/kg
ED50 ([7]; po, p.o.): 1.2 mg/kg
ED50 ([7]; sc, s.c.): 0.96 mg/kg
times more potent than lamotrigine in the maximal electroshock test ([7]; in rats and mice): 2-3 times
activity by the various routes tested ([7]; maximal electroshock, rats and mice): approximately equiactive by the various routes tested
reversal of the changes induced by egg albumin [8]: complete reversal
inhibition of Na+ currents ([9]; R(-)enantiomer 1-500 μM): inhibition of Na^+ currents in a concentration-dependent and voltage-dependent manner
IC50 ([9]; Vh = -60 mV): 18 µM
IC50 ([9]; Vh = -90 mV): 160 µM
Analgesia ED50 (95% limits) [10]: 2.5 (2.2-2.9) mg/kg
